Reference: US6214860A, “Synergistic antitumor composition containing a naphthalensulphonic acid derivative” (Pharmacia & Upjohn S.p.A., priority 1997, dated 2001)
Where “and” joins values, the source holds several entries; their conditions need not be identical. Equal entries are not always repeated. Structures can show the parent of a compound that is named as a salt. Where two headings read alike, the source gives them in different places.

Key:
[1] = tested on: M5076 murine reticulosarcoma cells; test: In vitro antiproliferative activity (% cell growth vs untreated control); format: cell-based; conditions: for antiproliferative activity in the presence of PNU 145156E: in words, PNU 145156E 50000 ng/ml vs 0 ng/ml
Protocol: (§1) The combinations were assayed in vitro on M5076 murine reticulosarcoma cells and in vivo on the same tumor cells implanted intramuscularly.

[2] = tested on: M5076 murine reticulosarcoma cells; test: In vivo antitumor activity in mice implanted with M5076 tumor cells; design: species or system Mice C57BL/6; conditions: days 1, 4, 7 and 11; for A.U.C. % inhib. (inhibition of tumor growth): one week after last treatment; for TGD (tumor growth delay): time to reach one gram
Protocol: as §1
The antitumor activity was calculated in terms of:
% AUC: inhibition of tumor growth
T/C %: percentage of median increase in survival time
The A.U.C. (area under the curve) of the tumor growth was calculated by using the trapezoidal method, and is referred to the measurement of tumor growth performed one week after the last treatment. The percentage of inhibition (% A.U.C.) was calculated using the following formula: [formula]
The percentage of increase in survival time (T/C% ) was calculated using the following formula: [formula]
Mice were monitored according to guidelines and sacrificed when tumor weight exceeded 10% body weight. Tumor growth delay (TGD) is the time, in days, to reach one gram of tumor weight in treated animals as compared to control animals.
Evaluation of statistical significance was performed as follows: Student's Test for cytotoxic activity, Two-Way Anova for increase in survival time (T/C %) with combined treatment in comparison to the increase exerted separately by the two drugs, Tukey Test for tumor weight reduction (AUC % inhibition) with combined treatment in comparison to the reduction exerted separately by the two drugs.
The criterion for statistical significance was the 0.01 level ( )

[3] = days 1, 4, 7 and 11
Protocol: Mice C57BL/6 were implanted with M5076 murine reticulosarcoma cells. PNU 145156E was administered ip 2 h prior to cytotoxic drugs administered iv starting treatment 24 h after tumor implant. Treatments were performed at days 1, 4, 7 and 11.
The toxicological evaluation was performed in terms of body weight loss and spleen and liver reduction.

[4] = TX 33 mg/kg iv, combination: + PNU 145156E 100 mg/kg ip 2 h prior
[5] = TX 40 mg/kg iv, combination: + PNU 145156E 100 mg/kg ip 2 h prior
[6] = cytotoxic 40 ng/ml + PNU 145156E 50000 ng/ml, 72 h, 37° C.
[7] = CIS 6 mg/kg iv, combination: + PNU 145156E 100 mg/kg ip 2 h prior
[8] = PNU 145156E alone 100 mg/kg ip, single-agent arm of each of Tables 2-6
[9] = 9AC 2.5 mg/kg iv, combination: + PNU 145156E 100 mg/kg ip 2 h prior
[10] = 9AC 3 mg/kg iv, combination: + PNU 145156E 100 mg/kg ip 2 h prior
[11] = 9AC 3.5 mg/kg iv, combination: + PNU 145156E 100 mg/kg ip 2 h prior
[12] = CPT-11 60 mg/kg iv, combination: + PNU 145156E 100 mg/kg ip 2 h prior

Molecule `CC(=O)O[C@H]1C(=O)[C@@]2(C)[C@H]([C@H](OC(=O)c3ccccc3)[C@]3(O)C[C@H](OC(=O)[C@H](O)[C@@H](NC(=O)c4ccccc4)c4ccccc4)C(C)=C1C3(C)C)[C@]1(OC(C)=O)CO[C@@H]1C[C@@H]2O` [PACLITAXEL, paclitaxel] has an activity at 0.00625 µg/mL ([1]; Mus musculus, M5076, cytotoxic 6.25 ng/ml, PNU 145156E 0 ng/ml, 72 h, 37° C., read-out: % cell growth ± S.E.) of 89 ± 1%, an activity at 0.025 µg/mL ([1]; Mus musculus, M5076, cytotoxic 25 ng/ml, PNU 145156E 0 ng/ml, 72 h, 37° C., read-out: % cell growth ± S.E.) of 50 ± 7% and an activity at 0.1 µg/mL ([1]; Mus musculus, M5076, cytotoxic 100 ng/ml, PNU 145156E 0 ng/ml, 72 h, 37° C., read-out: % cell growth ± S.E.) of 1 ± 1%. The “% cell growth ± S.E.” value ([1]; cytotoxic 6.25 ng/ml + PNU 145156E 50000 ng/ml, 72 h, 37° C.) was 87 ± 14%, the “% cell growth ± S.E.” value ([1]; cytotoxic 25 ng/ml + PNU 145156E 50000 ng/ml, 72 h, 37° C.) was 43 ± 1% and the “% cell growth ± S.E.” value ([1]; cytotoxic 100 ng/ml + PNU 145156E 50000 ng/ml, 72 h, 37° C.) was 2 ± 0%. For the same molecule, the “antiproliferative activity in the presence of PNU 145156E” value (“antiproliferative activity” below) [1] was “unchanged in the presence of PNU 145156E”, the “T/C % (median increase in survival time)” value [2, 4] was 108% and the Tumor weight [2, 4] was 2.34 ± 0.9 gr. For the same molecule, the “A.U.C. % inhib. (inhibition of tumor growth)” value [2, 4] was 77%, the “TGD (tumor growth delay)” value [2, 4] was 8 days and the “T/C % (median increase in survival time)” value [2, 5] was 118%. The Tumor weight [2, 5] was 1.3 ± 0.7 gr, the “A.U.C. % inhib. (inhibition of tumor growth)” value [2, 5] was 93% and the “TGD (tumor growth delay)” value [2, 5] was 9 days. For the same molecule, the Toxic/total mice [3, 4] was 0/10 and the Toxic/total mice [3, 5] was 0/10.
With `N.N.[Cl][Pt][Cl]` [CIS, cisplatin] the “% cell growth ± S.E.” value ([1]; cytotoxic 8 ng/ml + PNU 145156E 50000 ng/ml, 72 h, 37° C.) was 83 ± 7%, the “% cell growth ± S.E.” value ([1]; cytotoxic 8 ng/ml, PNU 145156E 0 ng/ml, 72 h, 37° C.) was 91 ± 3% and the “% cell growth ± S.E.” value [1, 6] was 46 ± 3%. For the same molecule, the “% cell growth ± S.E.” value ([1]; cytotoxic 40 ng/ml, PNU 145156E 0 ng/ml, 72 h, 37° C.) was 52 ± 7%, the “% cell growth ± S.E.” value ([1]; cytotoxic 200 ng/ml + PNU 145156E 50000 ng/ml, 72 h, 37° C.) was 4 ± 1% and the “% cell growth ± S.E.” value ([1]; cytotoxic 200 ng/ml, PNU 145156E 0 ng/ml, 72 h, 37° C.) was 9 ± 5%. For the same molecule, the “antiproliferative activity” value [1] was “unchanged in the presence of PNU 145156E”, the “T/C % (median increase in survival time)” value [2, 7] was 130% and the Tumor weight [2, 7] was 1.1 ± 0.1 gr. The “A.U.C. % inhib. (inhibition of tumor growth)” value [2, 7] was 75% and the “TGD (tumor growth delay)” value [2, 7] was 11 days.
With `Cn1cc(NC(=O)Nc2cc(C(=O)Nc3cc(C(=O)Nc4ccc5cc(S(=O)(=O)O)cc(S(=O)(=O)O)c5c4)n(C)c3)n(C)c2)cc1C(=O)Nc1cc(C(=O)Nc2ccc3cc(S(=O)(=O)O)cc(S(=O)(=O)O)c3c2)n(C)c1` [PNU 145156E, 7'-(carbonyl-bis(imino-N-methyl-4,2-pyrrolecarbonyl-imino(N-methyl-4,2-pyrrole)carbonylimino))bis(1,3-naphtalen-disulfonic acid)tetrasodium salt] the activity at 50 µg/mL ([1]; Mus musculus, M5076, 72 h, PNU 145156E 50000 ng/ml alone (cytotoxic 0 ng/ml), 72 h, 37° C., read-out: % cell growth ± S.E.) was 85%, the “% cell growth ± S.E.” value ([1]; PNU 145156E 50000 ng/ml alone (cytotoxic 0 ng/ml), 72 h, 37° C., 4320 min) was 88 ± 3% and 92 ± 5% and 92 ± 14% and 89 ± 19% and the “T/C % (median increase in survival time)” value [2, 8] was 121% and 141% and 148%. For the same molecule, the Tumor weight [2, 8] was 1.45 ± 0.7 gr and 2.63 ± 0.8 gr and 1.4 ± 0.7 gr and 1.7 ± 0.65 gr, the “A.U.C. % inhib. (inhibition of tumor growth)” value [2, 8] was 88% and 85% and 90% and 75% and the “TGD (tumor growth delay)” value [2, 8] was 9 days and 10 days and 16 days. For the same molecule, the Toxic/total mice [3, 8] was 0/10 and 0/9 and 0/8.
In the case of `CC[C@@]1(O)C(=O)OCc2c1cc1n(c2=O)Cc2cc3c(N)cccc3nc2-1` [9-AC, 9-aminocamptothecin], the activity at 0.0025 µg/mL ([1]; Mus musculus, M5076, 72 h, cytotoxic 2.5 ng/ml, PNU 145156E 0 ng/ml, 72 h, 37° C., read-out: % cell growth ± S.E.) is reported as 88 ± 10%, the activity at 0.01 µg/mL ([1]; Mus musculus, M5076, 72 h, cytotoxic 10 ng/ml, PNU 145156E 0 ng/ml, 72 h, 37° C., read-out: % cell growth ± S.E.) is reported as 28 ± 2% and the activity at 0.04 µg/mL ([1]; Mus musculus, M5076, 72 h, cytotoxic 40 ng/ml, PNU 145156E 0 ng/ml, 72 h, 37° C., read-out: % cell growth ± S.E.) is reported as 7 ± 2%. The “% cell growth ± S.E.” value ([1]; cytotoxic 2.5 ng/ml + PNU 145156E 50000 ng/ml, 72 h, 37° C.) was 76 ± 6%, the “% cell growth ± S.E.” value ([1]; cytotoxic 10 ng/ml + PNU 145156E 50000 ng/ml, 72 h, 37° C.) was 29 ± 9% and the “% cell growth ± S.E.” value [1, 6] was 8 ± 3%. The “antiproliferative activity” value [1] was “unchanged in the presence of PNU 145156E”, the “T/C % (median increase in survival time)” value [2, 9] was 121% and the Tumor weight [2, 9] was 2.4 ± 0.9 gr. The “A.U.C. % inhib. (inhibition of tumor growth)” value [2, 9] was 45%, the “TGD (tumor growth delay)” value [2, 9] was 5 days and the “T/C % (median increase in survival time)” value [2, 10] was 125%. For the same molecule, the Tumor weight [2, 10] was 2.13 ± 0.8 gr, the “A.U.C. % inhib. (inhibition of tumor growth)” value [2, 10] was 48% and the “TGD (tumor growth delay)” value [2, 10] was 6 days. For the same molecule, the “T/C % (median increase in survival time)” value [2, 11] was 128%, the Tumor weight [2, 11] was 1.58 ± 0.6 gr and the “A.U.C. % inhib. (inhibition of tumor growth)” value [2, 11] was 68%. For the same molecule, the “TGD (tumor growth delay)” value [2, 11] was 8 days, the Toxic/total mice [3, 9] was 0/10 and the Toxic/total mice [3, 10] was 0/10. The Toxic/total mice [3, 11] was 1/10.
In the case of `CCc1c2c(nc3ccc(O)cc13)-c1cc3c(c(=O)n1C2)COC(=O)[C@]3(O)CC` [SN-38], the activity at 0.0065 µg/mL ([1]; Mus musculus, M5076, 72 h, cytotoxic 6.5 ng/ml, PNU 145156E 0 ng/ml, 72 h, 37° C., read-out: % cell growth ± S.E.) is reported as 75 ± 5%, the activity at 0.0125 µg/mL ([1]; Mus musculus, M5076, 72 h, cytotoxic 12.5 ng/ml, PNU 145156E 0 ng/ml, 72 h, 37° C., read-out: % cell growth ± S.E.) is reported as 19 ± 2% and the activity at 0.035 µg/mL ([1]; Mus musculus, M5076, 72 h, cytotoxic 35 ng/ml, PNU 145156E 0 ng/ml, 72 h, 37° C., read-out: % cell growth ± S.E.) is reported as 5 ± 1%. For the same molecule, the “% cell growth ± S.E.” value ([1]; cytotoxic 6.5 ng/ml + PNU 145156E 50000 ng/ml, 72 h, 37° C.) was 74 ± 7%, the “% cell growth ± S.E.” value ([1]; cytotoxic 12.5 ng/ml + PNU 145156E 50000 ng/ml, 72 h, 37° C.) was 25 ± 7% and the “antiproliferative activity” value [1] was “unchanged in the presence of PNU 145156E”.
In the case of `CCc1c2c(nc3ccc(OC(=O)N4CCC(N5CCCCC5)CC4)cc13)-c1cc3c(c(=O)n1C2)COC(=O)[C@]3(O)CC` [CPT-11, irinotecan], the “T/C % (median increase in survival time)” value [2, 12] is reported as 215%, the Tumor weight [2, 12] is reported as 0.05 ± 0.2 gr and the “A.U.C. % inhib. (inhibition of tumor growth)” value [2, 12] is reported as 100%. The “TGD (tumor growth delay)” value [2, 12] was 34 days and the Toxic/total mice [3, 12] was 0/8.
